Reference: patent US20200375980A1, “VETERINARY ANTIPROLACTINIC COMPOSITION” (CEVA SANTE ANIMALE, priority 2018, published 2020)

Test system: Primiparous sows
Test: Proof of concept study, WOI (weaning to oestrus interval) in primiparous sows
Type: in vivo, Sus scrofa domesticus
Experimental: All sows included in this study were recruited from a single farm having an historical mean of WOI of 5.4 days, and a percentage of delayed oestrus (8 days) of 7.9%. Weaning was set after about 3 weeks of lactation. Primiparous sows (with normal health status and normal farrowing) were allocated into three groups: Cab_0 (n=19 sows): 5.6 μg/kg of cabergoline by intramuscular injection at weaning day (day 0) in sows, i.e. at the end of lactation, without suckling piglets. Cab_2 (n=30 sows): 5.6 μg/kg of cabergoline by intramuscular injection 2 days before weaning (day-2) in sows, i.e. lactation still pending with suckling piglets. Negative control group (n=29 sows): equivalent dose/volume of a ‘true’ placebo by intramuscular injection at Day-2 and day 0.

[1] = group Cab_0: 5.6 μg/kg intramuscular at weaning day (day 0)
[2] = group Cab_0: 5.6 μg/kg intramuscular at weaning day (day 0), n=19 sows
[3] = group Cab_2: 5.6 μg/kg intramuscular 2 days before weaning (day-2), n=30 sows

C=CCN1C[C@H](C(=O)N(CCCN(C)C)C(=O)NCC)C[C@@H]2c3cccc4[nH]cc(c34)C[C@H]21 [cabergoline, 1-[(6-allylergolin-8ß-yl)-carbonyl]-1-[3-(dimethylamino)propyl]-3-ethylurea]
impact of the treatment on fertility (all sows diagnosed positively pregnant after artificial insemination following oestrus detection, Cab_0 and Cab_2 groups): no negative impact | sows exhibiting delayed oestrus (after or equal 8 days), number of sows per group [1]: 1/19 | sows exhibiting delayed oestrus (after or equal 8 days), percentage [1]: 5.3% | number of sows in heats, WOI 8-14 days [2]: 1 | number of sows in heats, WOI 3 days [2]: 1 | number of sows in heats, WOI 4 days [2]: 6 | number of sows in heats, WOI 5 days [2]: 8 | number of sows in heats, WOI 6 days [2]: 2 | number of sows in heats, WOI 7 days [2]: 1 | delayed oestrus (after or equal 8 days) (group Cab_2: 5.6 μg/kg intramuscular 2 days before weaning (day-2)): no delayed oestrus | number of sows in heats, WOI 3 days [3]: 2 | number of sows in heats, WOI 4 days [3]: 13 | number of sows in heats, WOI 5 days [3]: 10 | number of sows in heats, WOI 6 days [3]: 5 | number of sows in heats, WOI 7 days [3]: 0
